Experimental data reported in ChEMBL document CHEMBL1151462, “Mosaic tetracycline resistance genes and their flanking regions in Bifidobacterium thermophilum and Lactobacillus johnsonii” (2008).
In brackets after ≈: the same amount, converted by molar mass.

How the values were obtained:
Assay type in all cases: functional
[1] = tested on: Bifidobacterium thermophilum; assay: Antibacterial activity against Bifidobacterium thermophilum B0242 by broth microdilution method
[2] = tested on: Bifidobacterium thermophilum; assay: Antibacterial activity against Bifidobacterium thermophilum B0219 by broth microdilution method
[3] = tested on: Bifidobacterium thermophilum; assay: Antibacterial activity against Bifidobacterium thermophilum B0241 by broth microdilution method
[4] = tested on: Bifidobacterium thermophilum; assay: Antibacterial activity against Bifidobacterium thermophilum B0256 by broth microdilution method
[5] = tested on: Bifidobacterium thermophilum; assay: Antibacterial activity against Bifidobacterium thermophilum B0253 by broth microdilution method
[6] = tested on: Lactobacillus johnsonii; assay: Antibacterial activity against Lactobacillus johnsonii L0077 by Etest

MIC [1]: 256 µg/mL (≈ 576 µM)
MIC [2]: 128 µg/mL (≈ 288 µM)
MIC [3]: 128 µg/mL (≈ 288 µM)
MIC [4]: 128 µg/mL (≈ 288 µM)
MIC [5]: 128 µg/mL (≈ 288 µM)
MIC [6]: > 256 µg/mL
SMILES: CN(C)[C@@H]1C(O)=C(C(N)=O)C(=O)[C@@]2(O)C(O)=C3C(=O)c4c(O)cccc4[C@@](C)(O)[C@H]3C[C@@H]12 [TETRACYCLINE]
